The results in this text go back to EP4722219A1 (Gan & Lee Pharmaceuticals Co., Ltd., priority 2023, dated 2024).

In general, IC50 refers to the midpoint of a concentration-inhibition curve. A high value points to a need for much substance.

What all share (type): cell-based
One test deals with T-47D cells. Briefly: Inhibition of cell proliferation in T-47D cells (CCK-8). The settings on record: 6 days treatment, CCK-8 cell viability. The gist of the method: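 T-47D cells (3,000/well) in RPMI-1640 with 10% FBS were exposed to a concentration range of PROTAC compounds for 6 days at 37 °C, 5% CO2. Viability read by CCK-8; IC50 fitted from inhibition rate.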
Another test relates to MCF-7 cells. Briefly: Inhibition of cell proliferation in MCF-7 cells (CCK-8). The settings on record: MCF-7 cell proliferation, 6 days treatment. Put shortly:
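MCF-7 cells, 800 per well in DMEM plus 10% FBS, exposed to graded PROTAC concentrations for 6 days at 37 °C, 5% CO2. Viability by CCK-8; IC50 fitted from inhibition rates.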

In test [1] the target is T1, ERα (Homo sapiens, UniProt P03372).
T1 sequence (P03372 1-595): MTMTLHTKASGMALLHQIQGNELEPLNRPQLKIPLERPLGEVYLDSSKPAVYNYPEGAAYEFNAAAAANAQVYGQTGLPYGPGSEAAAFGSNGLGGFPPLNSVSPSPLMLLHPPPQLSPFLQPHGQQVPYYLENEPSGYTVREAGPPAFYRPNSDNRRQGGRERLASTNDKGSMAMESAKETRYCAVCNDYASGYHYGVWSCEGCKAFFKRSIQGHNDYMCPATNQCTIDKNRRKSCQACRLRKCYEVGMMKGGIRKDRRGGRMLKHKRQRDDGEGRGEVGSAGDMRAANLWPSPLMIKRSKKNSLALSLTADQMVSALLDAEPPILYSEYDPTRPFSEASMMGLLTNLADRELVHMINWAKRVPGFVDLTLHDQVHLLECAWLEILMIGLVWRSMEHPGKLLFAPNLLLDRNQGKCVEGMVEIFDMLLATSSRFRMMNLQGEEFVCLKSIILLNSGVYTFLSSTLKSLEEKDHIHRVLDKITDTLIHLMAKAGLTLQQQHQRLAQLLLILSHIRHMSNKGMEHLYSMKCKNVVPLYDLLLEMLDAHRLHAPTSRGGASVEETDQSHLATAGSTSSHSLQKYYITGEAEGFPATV
Briefly: ERα degradation in T-47D cells (Western blot). The following applies: 4 hours. The gist of the method:
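T-47D cells at 3×10^5 cells/well were exposed to compound (final 0.15-1000 nM, DMSO) for 4 hours at 37°C and then lysed in RIPA. ERα was measured by Western blot (20 µg protein) with infrared imaging. The degradation rate was calculated from ERα/internal-reference grayscale ratios relative to control.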
(In general: A western blot detects proteins with antibodies after separation by electrophoresis.)

Test [2] concerns the target T1, ERα. Briefly: ERα degradation in MCF-7 cells (Western blot). Details: host or cells: MCF-7. The settings on record: 4 hours. Put shortly: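 MCF-7 cells treated 4 h at 37 °C with compound at 0.15–1000 nM final. ERα in lysates measured by Western blot (20 µg protein), normalized to an internal reference protein; degradation rate calculated against control.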

In the case of `O=C1CC[C@H](NC(=O)c2ccc3c(c2)OCC[C@H]2CN(CC4CCC(OC5CCN(c6ccc([C@@H]7c8ccc(O)cc8CC[C@@H]7c7ccccc7)cc6)CC5)CC4)CCN32)C(=O)N1` (stereo partly drawn) [ER-P-45, (S)-N-((S)-2,6-dioxopiperidin-3-yl)-3-((4-((1-(4-((1R,2S)-6-hydroxy-2-phenyl-1,2,3,4-tetrahydronaphthalen-1-yl)phenyl)piperidin-4-yl)oxy)cyclohexyl)methyl)-2,3,4,4a,5,6-hexahydro-1H-benzo[b]pyrazino[1,2-d][1,4]oxazepine-9-carboxamide], the IC50 is 1.48 nM in the test on T-47D cells and 1630 nM in the test with MCF-7 cells. Also, the results for the “Degradation rate of ERα in T-47D cells (%)” value on ERα [1] (1nM) and at ERα [1] (10nM) were -5% and -3%, respectively. For the same molecule, the “Degradation rate of ERα in MCF-7 cells (%)” value at ERα [2] (1nM) is -15%; at ERα [2] (10nM), -24%.
Turning to `COc1cc2c(cc1C(=O)N[C@H]1CCC(=O)NC1=O)OCC[C@H]1CN(CC3CCC(OC4CCN(c5ccc([C@@H]6c7ccc(O)cc7CC[C@@H]6c6ccccc6)cc5)CC4)CC3)CCN21` (stereo partly drawn) [ER-P-46, (S)-N-((S)-2,6-dioxopiperidin-3-yl)-3-(((1S,4R)-4-((1-(4-((1R,2S)-6-hydroxy-2-phenyl-1,2,3,4-tetrahydronaphthalen-1-yl)phenyl)piperidin-4-yl)oxy)cyclohexyl)methyl)-10-methoxy-2,3,4,4a,5,6-hexahydro-1H-benzo [b]pyrazino[1,2-d][1,4]oxazepine-9-carboxamide], the half-maximal inhibitory concentration (IC50) in the test with T-47D cells was determined as 1.17 nM; in the test on MCF-7 cells, 731 nM. Also, the “Degradation rate of ERα in T-47D cells (%)” value is listed as 35% at ERα [1] (1nM) and 55% on ERα [1] (10nM). In addition, the “Degradation rate of ERα in MCF-7 cells (%)” value at ERα [2] (1nM) is 6%; at ERα [2] (10nM) it was 36%.
Consider `COc1c(C(=O)N[C@H]2CCC(=O)NC2=O)ccc2c1OC[C@H]1CN(CC3CCC(OC4CCN(c5ccc([C@@H]6c7ccc(O)cc7CC[C@@H]6c6ccccc6)cc5)CC4)CC3)CCN21` (stereo partly drawn) [ER-P-48, (R)-N-((S)-2,6-dioxopiperidin-3-yl)-3-(((1S,4S)-4-((1-(4-((1R,2S)-6-hydroxy-2-phenyl-1,2,3,4-tetrahydronaphthalen-1-yl)phenyl)piperidin-4-yl)oxy)cyclohexyl)methyl)-7-methoxy-1,2,3,4,4a,5-hexahydrobenzo[b]pyrazi no[1,2-d][1,4]oxazine-8-carboxamide], for which the results for the IC50 in the test on T-47D cells and in the test on MCF-7 cells were 115 nM and 7390 nM, respectively. The “Degradation rate of ERα in T-47D cells (%)” value is reported as 6% on ERα [1] (1nM) and 0% at ERα [1] (10nM). The entries for the “Degradation rate of ERα in MCF-7 cells (%)” value at ERα [2] (1nM) and on ERα [2] (10nM) were 13% and -1%, respectively.
As for `COc1cc2c(cc1C(=O)N[C@H]1CCC(=O)NC1=O)N(C)C[C@H]1CN(CC3CCC(OC4CCN(c5ccc([C@@H]6c7ccc(O)cc7CC[C@@H]6c6ccccc6)cc5)CC4)CC3)CCN21` (stereo partly drawn) [ER-P-49, (R)-N-((S)-2,6-dioxopiperidin-3-yl)-3-(((1S,4S)-4-((1-(4-((1R,2S)-6-hydroxy-2-phenyl-1,2,3,4-tetrahydronaphthalen-1-yl)phenyl)piperidin-4-yl)oxy)cyclohexyl)methyl)-9-methoxy-6-methyl-2,3,4,4a,5,6-hexahydro-1H-pyrazino[1,2-a]quinoxaline-8-carboxamide], the IC50 was 1.17 nM in the test with T-47D cells and 3730 nM in the test on MCF-7 cells. Moreover, the “Degradation rate of ERα in T-47D cells (%)” value on ERα [1] (1nM) is listed as -11%; on ERα [1] (10nM), 30%. For the same molecule, the “Degradation rate of ERα in MCF-7 cells (%)” value at ERα [2] (1nM) is recorded as -12%; at ERα [2] (10nM) it was 23%.
